Experimental data published in US5852007A, “Cysteine and serine protease inhibitors containing D-amino acid at the P2 position, methods of making same, and methods of using same” (priority 1997, dated 1998).
Like-named read-outs stand apart in the source and are kept apart here. Square brackets hold non-standard residues; d marks the D form. Peptide text beside a SMILES is read from it. * marks the point of attachment. dPhg = N[C@@H](C(=O)O)c1ccccc1; Tos = Cc1ccc(S(=O)(=O)*)cc1; Abu = CC[C@H](N)C(=O)O; Cbz = O=C(OCc1ccccc1)*; Bn = c1ccc(C*)cc1; Ms = CS(=O)(=O)*

Assays:
Format in all cases: biochemical
[1] = molecular target: T1, Recombinant human calpain I (Homo sapiens, UniProt P07384); assay: Inhibition of calpain I activity
T1 construct: made in house
T1 sequence (P07384 1-714): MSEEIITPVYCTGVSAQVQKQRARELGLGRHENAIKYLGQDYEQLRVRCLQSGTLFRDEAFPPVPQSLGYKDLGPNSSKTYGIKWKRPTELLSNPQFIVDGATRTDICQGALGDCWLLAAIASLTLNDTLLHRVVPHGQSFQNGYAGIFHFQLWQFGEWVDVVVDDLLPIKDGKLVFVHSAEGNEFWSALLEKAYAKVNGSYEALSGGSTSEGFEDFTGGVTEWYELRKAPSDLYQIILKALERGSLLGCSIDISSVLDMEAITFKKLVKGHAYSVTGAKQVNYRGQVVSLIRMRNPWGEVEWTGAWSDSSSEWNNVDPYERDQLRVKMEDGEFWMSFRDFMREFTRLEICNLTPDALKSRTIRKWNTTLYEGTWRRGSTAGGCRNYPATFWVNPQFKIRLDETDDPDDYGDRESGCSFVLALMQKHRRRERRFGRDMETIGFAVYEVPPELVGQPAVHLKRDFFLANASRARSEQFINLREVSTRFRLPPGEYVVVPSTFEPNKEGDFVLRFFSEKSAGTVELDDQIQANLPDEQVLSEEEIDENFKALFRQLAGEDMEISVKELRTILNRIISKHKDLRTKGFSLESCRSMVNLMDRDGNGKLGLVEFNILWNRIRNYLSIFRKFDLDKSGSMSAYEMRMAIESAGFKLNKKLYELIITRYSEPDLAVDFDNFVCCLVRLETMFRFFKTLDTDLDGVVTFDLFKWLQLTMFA
Method: To evaluate inhibitory activity, stock solutions (40 times concentrated) of exemplary compounds of the invention were prepared in 100% anhydrous DMSO and 5 μL of each inhibitor preparation were aliquoted into each of three wells of a 96-well plate. Recombinant human calpain I, prepared by the method of Meyer et al. (Biochem. […] To start the reaction, 20 μL of 50 mM CaCl2 in assay buffer was added to all wells of the plate, excepting three, which were used as background signal baseline controls. Substrate hydrolysis was monitored every 5 minutes for a total of 30 minutes. […] Inhibition of calpain I activity was calculated as the percent decrease in the rate of substrate hydrolysis in the presence of inhibitor (VI) relative to the rate in its absence (VO). Comparison between VO and VI was made within the linear range for substrate hydrolysis. For screening, compounds were tested at 10, 1.0, and 0.1 μM. […] The results were plotted as % inhibition versus log inhibitor concentration and the IC50 was calculated from linear regression of the data. Apparent second order rate constants were determined from analysis of reaction progress curves under pseudo-first order conditions. Each determination represents the means of three or more independent single cuvette analyses continually monitored via a Perkin-Elmer LS50B spectrofluorimeter. The rate of inhibition of hydrolysis was obtained by fitting the curve to the exponential equation (1): […]

cathepsin B = molecular target: T2, cathepsin B (Homo sapiens, UniProt P07858); assay: Inhibition of cathepsin B; conditions: for inhibition at 1 µM: read-out: Cat B % I @ 1 uM; for IC50: read-out: Cat B IC50
T2 construct: purchased Calbiochem 219364
Method: (§1) Additionally,the order of reagents added to the plate was altered because both enzymes are constitutively active. Following inhibitor addition to the plates, appropriate 2× concentrated stock dilutions of the enzyme preparations were made in assay buffer and 100 μl added to each well. The assay was initiated by addition of 100 μl of 2× concentrated stock dilution of substrate in assay buffer.

cathepsin L = molecular target: T3, cathepsin L (Homo sapiens, UniProt P07711); assay: Inhibition of cathepsin L; conditions: for inhibition at 1 µM: read-out: Cat L % I @ 1 uM
T3 construct: purchased Calbiochem 219402
Method: as §1

thrombin = molecular target: T4, thrombin (Homo sapiens, UniProt P00734); assay: Inhibition of thrombin; conditions: for inhibition at 10 µM: read-out: Thrombin % I @ 10 uM
T4 construct: purchased Sigma Chem. Co. T-7009

α-chymotrypsin = molecular target: T5, α-chymotrypsin (Bos taurus, UniProt P00766); assay: Inhibition of α-chymotrypsin; conditions: for inhibition at 10 µM: read-out: Chymotrypsin % I @ 10 uM
T5 construct: purchased Sigma Chem. Co. C-3142
Method: Additionally, because α-chymotrypsin is not a calcium sensitive enzyme and is constitutively active, following addition of inhibitor stocks to the 96 well plates, 100 μl of a 2-fold concentrated stock of enzyme in dilution buffer was first added and the reaction started by addition of 100 μl of a 2-fold concentrated stock of substrate in assay buffer. Substrate hydrolysis was monitored every 5 minutes up to 30 minutes using a Fluoroskan II ([…]).

T3 sequence (P07711 114-288 limits assumed): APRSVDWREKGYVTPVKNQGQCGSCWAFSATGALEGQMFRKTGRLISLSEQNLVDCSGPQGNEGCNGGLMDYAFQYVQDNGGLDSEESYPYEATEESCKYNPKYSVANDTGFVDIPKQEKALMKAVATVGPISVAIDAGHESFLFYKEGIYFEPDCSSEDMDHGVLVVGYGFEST
T3 sequence (P07711 292-333 limits assumed): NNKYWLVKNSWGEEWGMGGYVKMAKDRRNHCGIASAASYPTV

| SMILES | IC50 ([1]; Table III) | inhibition at 0.1 µM ([1]; Table III, 0.1 uM) | inhibition at 1 µM (cathepsin B; Table III, 1 uM) | inhibition at 1 µM (cathepsin L; Table III, 1 uM) | inhibition at 10 µM (thrombin; Table III, 10 uM) | inhibition at 10 µM (α-chymotrypsin; Table III, 10 uM) | also measured |
| --- | --- | --- | --- | --- | --- | --- | --- |
| CS(=O)(=O)N[C@H](Cc1ccccc1)C(=O)N[C@H](C=O)Cc1ccccc1 [Compound 70] (Ms-[dF]-Phe-aldehyde) | 16 nM | 85% | 90% | 100% | 0% | 12% |  |
| CC(C)(C)OC(=O)N[C@H](COCc1ccccc1)C(=O)N[C@H](C=O)Cc1ccccc1 [Compound 82] |  | 4% | 60% | 93% | 6% | 8% |  |
| CS(=O)(=O)N[C@@H](C(=O)N[C@H](C=O)Cc1ccccc1)c1ccccc1 [Compound 76] (Ms-[dPhg]-Phe-aldehyde) | 13 nM | 88% | 79% | 90% | 1% | 30% | IC50 (cathepsin B; Table III): 250 nM |
| CON=C[C@H](Cc1ccccc1)NC(=O)[C@@H](COCc1ccccc1)NS(C)(=O)=O [Compound 119] |  | 19% | 68% | 98% | 0% | 3% |  |
| CS(=O)(=O)N[C@H](CS(=O)(=O)Cc1ccccc1)C(=O)N[C@H](C=O)Cc1ccccc1 [Compound 80] | 15 nM | 90% | 99% | 100% | 4% | 8% | IC50 (cathepsin B; Table III): 46 nM |
| CC(=O)N[C@H](CSCc1ccccc1)C(=O)N[C@H](C=O)Cc1ccccc1 [Compound 25, BnS--CH2 CH(NHC(=O)CH3)C(=O)-Phe--H] (Ac-[dC](Bn)-Phe-aldehyde) |  |  |  |  |  |  | IC50 ([1]; Table II): 26 nM; IC50 (cathepsin B; Table II): 5000 nM; IC50 (cathepsin L; Table II, read-out: Cat L IC50): 48 nM; inhibition at 10 µM (thrombin; Table II, 10 uM): 0%; inhibition at 10 µM (α-chymotrypsin; Table II, 10 uM): 3% |
| CC[C@@H](C=O)NC(=O)[C@@H](COCc1ccccc1)NS(C)(=O)=O [Compound 41] (Ms-[dS](Bn)-[Abu]-aldehyde) | 50 nM | 67% | 42% | 100% | 2% | 0% |  |
| CS(=O)(=O)N[C@H](COCc1ccccc1)C(=O)N[C@H](C=O)CCCCNS(=O)(=O)c1ccccc1 [Compound 122] | 3 nM | 98% | 100% | 100% | 0% | 13% |  |
| CC(=O)Nc1ccc(S(=O)(=O)N[C@H](COCc2ccccc2)C(=O)N[C@H](C=O)Cc2ccccc2)cc1 [Compound 51] | 32 nM | 92% | 100% | 100% | 21% | 3% | IC50 (cathepsin B; Table III): 14 nM |
| O=C[C@H](Cc1ccccc1)NC(=O)[C@@H](Cc1ccccc1)NS(=O)(=O)c1ccccc1 [Compound 59] | 20 nM | 86% | 100% | 100% | 0% | 4% | IC50 (cathepsin B; Table III): 5 nM |
| CC(C)C[C@@H](NC(=O)OCc1ccccc1)C(=O)N[C@H](C=O)Cc1ccccc1 [Compound 85] (Cbz-[dL]-Phe-aldehyde) | 110 nM | 44% |  |  |  |  | inhibition at 1 µM (cathepsin B): 44%; inhibition at 1 µM (cathepsin L): 89%; inhibition at 10 µM (thrombin): 0%; inhibition at 10 µM (α-chymotrypsin): 6% |
| CS(=O)(=O)N[C@H](COCc1ccccc1)C(=O)N[C@@H](Cc1ccccc1)C(=O)CCc1ccccc1 [Compound 125] |  | 0% | 47% | 39% | 4% | 0% |  |
| Cc1ccc(S(=O)(=O)N[C@H](Cc2ccccc2)C(=O)N[C@H](C=O)Cc2ccccc2)cc1 [Compound 61] (Tos-[dF]-Phe-aldehyde) | 22 nM | 83% | 100% | 100% | 0% | 0% |  |

Further lines, with some results ahead:

| IC50 ([1]; Table III) | inhibition at 0.1 µM ([1]; Table III, 0.1 uM) | inhibition at 1 µM (cathepsin B; Table III, 1 uM) | inhibition at 1 µM (cathepsin L; Table III, 1 uM) | inhibition at 10 µM (thrombin; Table III, 10 uM) | inhibition at 10 µM (α-chymotrypsin; Table III, 10 uM) | SMILES | also measured |
| --- | --- | --- | --- | --- | --- | --- | --- |
| 14 nM | 87% | 50% | 65% | 0% | 12% | Cc1ccc(S(=O)(=O)N2CCC[C@@H]2C(=O)N[C@H](C=O)Cc2ccccc2)cc1 [Compound 120] (Tos-[dP]-Phe-aldehyde) |  |
|  | 68% | 87% | 100% | 0% | 10% | O=C[C@H](Cc1ccccc1)NC(=O)[C@@H](COCc1ccccc1)NC(=O)OCc1ccccc1 [Compound 64] |  |
| 5 nM | 99% | 100% | 99% | 0% | 0% | CS(=O)(=O)N[C@H](COCc1ccccc1)C(=O)N[C@H](C=O)Cc1ccc(OCc2ccccc2)cc1 [Compound 90] (Ms-[dS](Bn)-Tyr(Bn)-aldehyde) |  |
| 280 nM | 29% | 62% | 100% | 7% | 0% | O=C[C@H](Cc1ccccc1)NC(=O)[C@@H](COCc1ccccc1)NC(=O)c1ccccc1 [Compound 44] |  |
| 13 nM | 95% | 100% | 100% | 4% | 3% | O=C[C@H](Cc1ccccc1)NC(=O)[C@@H](COCc1ccccc1)NS(=O)(=O)c1cccs1 [Compound 54] |  |
|  | 7% | 16% | 14% | 0% | 2% | CCNC(=O)OC[C@H](Cc1ccccc1)NC(=O)[C@H]1CCCN1S(=O)(=O)c1ccc(C)cc1 [Compound 123] |  |
| 12 nM | 94% | 100% | 100% | 0% | 0% | CN(Cc1ccccc1)C(=O)C[C@@H](NS(C)(=O)=O)C(=O)N[C@H](C=O)Cc1ccccc1 [Compound 78] | IC50 (cathepsin B; Table III): 6 nM |
| 278 nM |  |  | 100% |  |  | CS(=O)(=O)N1Cc2ccccc2CC1C(=O)N[C@H](C=O)Cc1ccccc1 (single isomer, unassigned) [Compound 95] | Calpain % I @ 0.1 uM ([1]; Table III, 0.1 uM): 17%; Cat B % I @ 1 uM (cathepsin B; Table III, 1 uM): 38%; Thrombin % I @ 10 uM (thrombin; Table III, 10 uM): 1%; Chymotrypsin % I @ 10 uM (α-chymotrypsin; Table III, 10 uM): 0% |
| 24 nM | 90% | 100% | 100% | 15% | 6% | O=C[C@H](Cc1ccccc1)NC(=O)[C@@H](COCc1ccccc1)NS(=O)(=O)c1ccc(F)cc1 [Compound 46] |  |
